Entries after “also recorded” stand apart in the source; their conditions may differ. Read-outs that look alike come from different tables or passages of the source.

The test system of data set [1] is Escherichia coli, Pseudomonas aeruginosa, Staphylococcus aureus, Candida albicans, Aspergillus niger. Description: Hybrid USP/Ph. Eur. antimicrobial effectiveness test (AET). The following applies: for Ph. Eur. criteria B: leads of Study B; for USP/Ph. Eur. requirements (initial results of preliminary screen): multidose compound of Formula Ia formulation with SBE-CD; for AET Results Ph. Eur. Criteria A: Study A, compound of Formula Ia at 10 mgA/mL, cells without ✓ print organism (time point). Type of data set: cell-based. The method, then: Preparation of Preserved Formulations. […] Antimicrobial preservatives with optimal activity at a pH outside the nominal formulation value (pH 4.4) were titrated to either 3.5 or 5.0 using 1 N HCl or 1 N NaOH. A stock solution of either 10% or 5% (weight/volume) SBE-CD containing 10 mgA/mL of the compound of Formula Ia citrate was prepared. Preservative was added to the respective formulation on a weight basis.
Antimicrobial Efficacy Testing. A hybrid USP […]/Ph. Eur. 2000 antimicrobial effectiveness test (AET) was performed, as follows: 20 mL of drug product was individually inoculated with 0.1-0.2 mL of bacterial or fungal culture, per USP/Ph. Eur. compendial requirements. The final concentration of organisms in the test sample was between 1×10^5 and 1×10^6 cfu/mL. At initial 6 hr, 24 hr, 7 day, 14 day, and 28 day time intervals, 1 mL of the inoculated product was transferred into 9 mL of a recovery diluent, that was validated to confirm neutralization of the antimicrobial preservative. One mL of the diluted sample was then transferred to a sterile petri dish and combined with 15-20 mL of an agar broth to culture the organisms. Plates were then incubated for 3 to 5 days, upon which colonies were counted. Initial organism contamination was then calculated based on dilution of the initial sample.
Generally, the USP test requirements are less stringent than Ph. Eur. requirements, which typically have an immediate bacteriocidal activity requirement. The Ph. Eur. requirements shown in Table III have either a “Criteria A” or “Criteria B” specification depending on the rate of microorganism reduction, with criteria A requiring an increased bacteriocidal rate. In order to meet the combined hybrid assay, the initial inoculum count of microorganisms needed to be reduced by the amounts listed in Table V.

The test system is the same in data set [2]. The following applies: as indicated by literature; cited from earlier work.
The nature of data set [3]: Stability measurements (accelerated stability). Conditions: for ACCEPTABLE STABILITY: 10 mgA/mL compound of Formula Ia. How it is done: Stability Measurements. Potential lead formulations were evaluated under various accelerated stability conditions in order to assess potency and purity of compound of Formula Ia, preservative content and SBE-CD content. For example, in one accelerated stability study, potential lead formulations were placed in stability ovens to measure short-term thermal stability. […] Purity and potency assays to measure compound of Formula Ia, as well as antimicrobial preservatives and SBE-CD content, were performed using validated HPLC methodology. SBE-CD was assayed using GTP 5984.

The conditions of data set [4]: for IST: Study A, compound of Formula Ia at 10 mgA/mL. How it is done:
Injection site toleration was measured by inspecting the patient for signs of reaction, including erythema (size); skin thickening (size), pain on palpation and edema. Table VI provides a detailed explanation of the scoring system: a score of 0 (no reaction) to 4 (severe reaction) was given for each characteristic and each injection site daily.
Compound of Formula Ia formulations were evaluated for injection site toleration (hereinafter “IST”).
Formulations were tested in groups of 4 dogs comprised of beagles and mongrels. […] Dogs were observed daily for evidence of reaction at the injection site and a score of 0-4 (see Table VI) was given for each of the following parameters: pain on injection, erythema, tissue thickening, pain on palpation and edema. Dogs were observed daily until day 5 (24 hours after the last dose).

[5] abbreviates: pH: 4.4, SBE-CD: 10%, content: ethanol 15%, meta-cresol 0.3%, propylene glycol 50%, thimerosal 0.01.
Where [6] appears, read: preserved compound of Formula Ia/SBE-CD formulations.
[7] abbreviates: pH: 4.2, SBE-CD: 10%, preservative content 0.2%.
Setting [8] is: compound of Formula Ia formulations solubilised with cyclodextrin.
[9] abbreviates: pH: 4.4, SBE-CD: 5%, ethanol 15%.

For `C[CH2][Hg][S]c1ccccc1C(=O)[O-].[Na+]` [Thimerosal], in data set [1], the “Ph. Eur. criteria B” value is “met criteria B” and the “USP/Ph. Eur. requirements (initial results of preliminary screen)” value (from here on “USP/Ph. Eur. requirements”) is recorded as “satisfied USP/Ph. Eur. requirements”. Besides, the “USP and Ph. Eur. criteria A or B requirements” value in data set [2] is “met both the USP and either Ph. Eur. criteria A or B requirements”. Moreover, in data set [3], the “stability in the formulation (in words)” value is given as “commercially undesirable”. The molecule also yielded a Stability in data set [3] (Study A, pH: 4.4, SBE-CD: 10%, thimerosal 0.01, compound of Formula Ia at 10 mgA/mL) of 1 wk/70. Besides, the “preservative remained in the formulation” value in data set [3] (after 1 week at 70° C. storage) was determined as 30%. The loss of preservative entry in data set [3] (after 6 weeks, 70° C. storage) is recorded as “complete loss”. The IST result in data set [4] (setting [5]) is “Good”. The injection site toleration entry in data set [4] (setting [6]) was “good injection site toleration”.
Regarding `CC(O)CO` (stereo not shown) [Propylene glycol], in data set [1], the “activity against the fungi” value is “ineffective against the fungi” and the “USP/Ph. Eur. requirements” value is “satisfied USP/Ph. Eur. requirements”. Besides, the activity against bacteria entry in data set [1] (with and without SBE-CD) was “active against bacteria only in the presence of SBE-CD”. Further, the “USP and Ph. Eur. criteria A or B requirements” value in data set [2] is “met both the USP and either Ph. Eur. criteria A or B requirements”.
Consider `O=C(O)c1ccccc1` [Benzoic acid, Benzoic Acid], for which the “AET Results Ph. Eur. Criteria A” value in data set [1] (setting [7]) is “c. alb (7 d); also recorded: s. aur (6, 24 hr)”. The reducing the microorganisms entry in data set [1] (after 7 days) is listed as “ineffective”. For the same molecule, the “Ph. Eur. criteria B” value in data set [1] was “met criteria B”. In data set [2], the “USP and Ph. Eur. criteria A or B requirements” value was “met both the USP and either Ph. Eur. criteria A or B requirements”. Further, the loss of preservative entry in data set [3] (over 12 weeks at 70° C. storage) was “no detectable loss”. For the same molecule, the “ACCEPTABLE STABILITY” value in data set [3] (pH 4.2, 10% SBE-CD) is listed as “✓”. Moreover, the IST entry in data set [4] (setting [7]) was “Poor”. The pain on injection entry in data set [4] (preserved compound of Formula Ia formulation) is “moderate to severe pain on injection”. In addition, the injection site toleration result in data set [4] (setting [6]) was “poor IST results”.
Take 2-hydroxypropyl-β-cyclodextrin: in data set [4] (setting [8]), the injection site toleration result was “acceptable injection site toleration”.
Still for that read-out and setting: with Sulfobutylether-βcyclodextrin [SBE-CD] the entry was “acceptable injection site toleration”.
For `CCO` [Ethanol], the figures for the “AET Results Ph. Eur. Criteria A” value in data set [1] (setting [9]) and in data set [1] (setting [5]) were “a. niger (7 d)” and “s. aur (6 hr)”, respectively. For the same molecule, the “USP/Ph. Eur. requirements” value in data set [1] is on record as “satisfied USP/Ph. Eur. requirements”. Moreover, the “USP and Ph. Eur. criteria A or B requirements” value in data set [2] is “met both the USP and either Ph. Eur. criteria A or B requirements”. The “ACCEPTABLE STABILITY” value in data set [3] (pH 4.4, 5% SBE-CD) is recorded as “✓”. Further, the IST result in data set [4] (setting [9]) and in data set [4] (setting [5]) was “Poor” throughout.
